{"source": "PubChem BioAssay (NCI)", "assay_in_all_cases": "DTP human tumour cell line panel, 48 h", "key": {"786-0 renal": {"tested_on": "786-0 renal"}, "RPMI-8226 leukemia": {"tested_on": "RPMI-8226 leukemia"}, "OVCAR-8 ovarian": {"tested_on": "OVCAR-8 ovarian"}, "ACHN renal": {"tested_on": "ACHN renal"}, "SR leukemia": {"tested_on": "SR leukemia"}, "U251 CNS": {"tested_on": "U251 CNS"}, "OVCAR-4 ovarian": {"tested_on": "OVCAR-4 ovarian"}, "HOP-62 NSCLC": {"tested_on": "HOP-62 NSCLC"}, "KM12 colon": {"tested_on": "KM12 colon"}, "NCI-H460 lung": {"tested_on": "NCI-H460 lung"}, "CAKI-1 renal": {"tested_on": "CAKI-1 renal"}, "BT-549 breast": {"tested_on": "BT-549 breast"}, "HS 578T breast": {"tested_on": "HS 578T breast"}, "SNB-75 CNS": {"tested_on": "SNB-75 CNS"}, "SF-295 CNS": {"tested_on": "SF-295 CNS"}, "A498 renal": {"tested_on": "A498 renal"}, "HT29 colon": {"tested_on": "HT29 colon"}, "HCT-116 colon": {"tested_on": "HCT-116 colon"}, "SW-620 colon": {"tested_on": "SW-620 colon"}, "UACC-62 melanoma": {"tested_on": "UACC-62 melanoma"}, "RXF 393 renal": {"tested_on": "RXF 393 renal"}, "UO-31 renal": {"tested_on": "UO-31 renal"}, "DU-145 prostate": {"tested_on": "DU-145 prostate"}, "SN12C renal": {"tested_on": "SN12C renal"}, "COLO 205 colon": {"tested_on": "COLO 205 colon"}, "HCC-2998 colon": {"tested_on": "HCC-2998 colon"}, "UACC-257 melanoma": {"tested_on": "UACC-257 melanoma"}, "NCI-H522 lung": {"tested_on": "NCI-H522 lung"}, "K-562 leukemia": {"tested_on": "K-562 leukemia"}, "MDA-MB-468 breast": {"tested_on": "MDA-MB-468 breast"}}, "note": "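Assay format: 96-well plates, 48-hour exposure. GI50 is the concentration that inhibits growth by half. TGI is the concentration that stops growth completely.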", "data": [{"molecule": "O=C(CNc1nc(-c2ccccc2)cs1)Nc1cccc(Cl)c1", "values": [{"measurement": "GI50", "setting": "786-0 renal", "result": 13.1, "unit": "µM"}, {"measurement": "TGI", "setting": "786-0 renal", "result": 38.3, "unit": "µM"}, {"measurement": "GI50", "setting": "RPMI-8226 leukemia", "result": 4.61, "unit": "µM"}, {"measurement": "TGI", "setting": "RPMI-8226 leukemia", "result": "> 100", "unit": "µM"}, {"measurement": "GI50", "setting": "OVCAR-8 ovarian", "result": 7.2, "unit": "µM"}, {"measurement": "TGI", "setting": "OVCAR-8 ovarian", "result": 74.6, "unit": "µM"}, {"measurement": "GI50", "setting": "ACHN renal", "result": 6.57, "unit": "µM"}, {"measurement": "TGI", "setting": "ACHN renal", "result": 19.8, "unit": "µM"}, {"measurement": "GI50", "setting": "SR leukemia", "result": 3.94, "unit": "µM"}, {"measurement": "TGI", "setting": "SR leukemia", "result": "> 100", "unit": "µM"}, {"measurement": "GI50", "setting": "U251 CNS", "result": 5.15, "unit": "µM"}, {"measurement": "TGI", "setting": "U251 CNS", "result": 19.5, "unit": "µM"}, {"measurement": "GI50", "setting": "OVCAR-4 ovarian", "result": 6.4, "unit": "µM"}, {"measurement": "TGI", "setting": "OVCAR-4 ovarian", "result": 20.9, "unit": "µM"}, {"measurement": "GI50", "setting": "HOP-62 NSCLC", "result": 12.6, "unit": "µM"}, {"measurement": "TGI", "setting": "HOP-62 NSCLC", "result": 36, "unit": "µM"}, {"measurement": "GI50", "setting": "KM12 colon", "result": 6.33, "unit": "µM"}, {"measurement": "TGI", "setting": "KM12 colon", "result": 22.5, "unit": "µM"}, {"measurement": "GI50", "setting": "NCI-H460 lung", "result": 10.1, "unit": "µM"}, {"measurement": "TGI", "setting": "NCI-H460 lung", "result": 28.6, "unit": "µM"}, {"measurement": "GI50", "setting": "CAKI-1 renal", "result": 3.13, "unit": "µM"}, {"measurement": "TGI", "setting": "CAKI-1 renal", "result": 42.9, "unit": "µM"}, {"measurement": "GI50", "setting": "BT-549 breast", "result": 4.82, "unit": "µM"}, {"measurement": "TGI", "setting": "BT-549 breast", "result": 19, "unit": "µM"}, {"measurement": "GI50", "setting": "HS 578T breast", "result": 7.94, "unit": "µM"}, {"measurement": "TGI", "setting": "HS 578T breast", "result": "> 100", "unit": "µM"}, {"measurement": "GI50", "setting": "SNB-75 CNS", "result": 3.22, "unit": "µM"}, {"measurement": "TGI", "setting": "SNB-75 CNS", "result": 19.7, "unit": "µM"}, {"measurement": "GI50", "setting": "SF-295 CNS", "result": 5.13, "unit": "µM"}, {"measurement": "TGI", "setting": "SF-295 CNS", "result": 18.1, "unit": "µM"}, {"measurement": "GI50", "setting": "A498 renal", "result": 11.5, "unit": "µM"}, {"measurement": "TGI", "setting": "A498 renal", "result": 33.5, "unit": "µM"}, {"measurement": "GI50", "setting": "HT29 colon", "result": 10.1, "unit": "µM"}, {"measurement": "TGI", "setting": "HT29 colon", "result": 24, "unit": "µM"}, {"measurement": "GI50", "setting": "HCT-116 colon", "result": 4.99, "unit": "µM"}, {"measurement": "TGI", "setting": "HCT-116 colon", "result": 34.1, "unit": "µM"}, {"measurement": "GI50", "setting": "SW-620 colon", "result": 12.1, "unit": "µM"}, {"measurement": "TGI", "setting": "SW-620 colon", "result": 30.3, "unit": "µM"}, {"measurement": "GI50", "setting": "UACC-62 melanoma", "result": 3.33, "unit": "µM"}, {"measurement": "TGI", "setting": "UACC-62 melanoma", "result": 16.6, "unit": "µM"}, {"measurement": "GI50", "setting": "RXF 393 renal", "result": 5.39, "unit": "µM"}, {"measurement": "TGI", "setting": "RXF 393 renal", "result": 18.4, "unit": "µM"}, {"measurement": "GI50", "setting": "UO-31 renal", "result": 2.41, "unit": "µM"}, {"measurement": "TGI", "setting": "UO-31 renal", "result": 14.8, "unit": "µM"}, {"measurement": "GI50", "setting": "DU-145 prostate", "result": 15.2, "unit": "µM"}, {"measurement": "TGI", "setting": "DU-145 prostate", "result": 37.2, "unit": "µM"}, {"measurement": "GI50", "setting": "SN12C renal", "result": 6.3, "unit": "µM"}, {"measurement": "TGI", "setting": "SN12C renal", "result": 20.7, "unit": "µM"}, {"measurement": "GI50", "setting": "COLO 205 colon", "result": 15.6, "unit": "µM"}, {"measurement": "TGI", "setting": "COLO 205 colon", "result": 36.5, "unit": "µM"}, {"measurement": "GI50", "setting": "HCC-2998 colon", "result": 11.2, "unit": "µM"}, {"measurement": "TGI", "setting": "HCC-2998 colon", "result": 23.2, "unit": "µM"}, {"measurement": "GI50", "setting": "UACC-257 melanoma", "result": 13, "unit": "µM"}, {"measurement": "TGI", "setting": "UACC-257 melanoma", "result": 26.9, "unit": "µM"}, {"measurement": "GI50", "setting": "NCI-H522 lung", "result": 4.01, "unit": "µM"}, {"measurement": "TGI", "setting": "NCI-H522 lung", "result": 16.1, "unit": "µM"}, {"measurement": "GI50", "setting": "K-562 leukemia", "result": 3.84, "unit": "µM"}, {"measurement": "TGI", "setting": "K-562 leukemia", "result": 26, "unit": "µM"}, {"measurement": "GI50", "setting": "MDA-MB-468 breast", "result": 4.01, "unit": "µM"}]}]}
